The source made the active and inactive calls. The rule behind the calls is not given here.
How the values were obtained:
[1] = target: T1, Muscarinic acetylcholine receptor M1 (Homo sapiens) (UniProt P11229); assay: Positive allosteric modulation of human muscarinic M1 receptor expressed in CHO cells assessed as effect on acetylcholine-induced calcium mobilization by FLIPR assay; type: functional, cell-based
T1 sequence (whole entry): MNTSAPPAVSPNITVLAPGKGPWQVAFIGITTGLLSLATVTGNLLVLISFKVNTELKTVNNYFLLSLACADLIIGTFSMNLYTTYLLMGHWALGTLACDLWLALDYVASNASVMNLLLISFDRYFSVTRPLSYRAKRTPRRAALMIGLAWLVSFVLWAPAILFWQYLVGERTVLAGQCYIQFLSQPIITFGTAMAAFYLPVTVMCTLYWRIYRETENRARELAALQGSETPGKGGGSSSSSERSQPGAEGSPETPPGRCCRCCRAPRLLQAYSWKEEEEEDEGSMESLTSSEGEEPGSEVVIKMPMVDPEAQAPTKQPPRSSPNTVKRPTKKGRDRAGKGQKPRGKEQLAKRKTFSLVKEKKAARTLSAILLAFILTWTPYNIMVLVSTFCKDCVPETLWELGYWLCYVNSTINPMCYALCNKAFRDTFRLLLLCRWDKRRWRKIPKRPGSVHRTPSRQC

[2] = test system: Plasma; assay: Plasma concentration in Sprague-Dawley rat at 10 mg/kg, po; type: ADME, organism-based; design: dose 10 mg/kg, route oral; details: in vivo
[3] = test system: Brain; assay: Drug concentration in Sprague-Dawley rat barin at 10 mg/kg, po; type: ADME, organism-based; design: dose 10 mg/kg, route oral; details: in vivo, read-out: Drug uptake
[4] = test system: Cerebrospinal fluid; assay: Drug concentration in Sprague-Dawley rat cerebrospinal fluid at 10 mg/kg, po; type: ADME, organism-based; design: dose 10 mg/kg, route oral; details: in vivo, read-out: Drug uptake
[5] = Ratio of drug level in brain to plasma in Sprague-Dawley rat at 10 mg/kg, po; type: ADME, organism-based; design: dose 10 mg/kg, route oral
[6] = target: T1, Muscarinic acetylcholine receptor M1 (Homo sapiens); assay: Positive allosteric modulation of human muscarinic M1 receptor expressed in CHO cells assessed as potentiation of acetylcholine-induced calcium mobilization at 1 uM by FLIPR assay relative to control; type: functional, cell-based
[7] = target: T1, Muscarinic acetylcholine receptor M1 (Homo sapiens); assay: Agonist activity at human muscarinic M1 receptor expressed in CHO cells assessed as increase of calcium mobilization at 100 uM by FLIPR assay; type: functional, cell-based

IP [1] [nM]	Structure (SMILES)	other results
624	CN1CCCc2cc(Cn3cc(C(=O)O)c(=O)c4c(F)cccc43)ccc21	–
3800	CN1CCN(C)c2cc(Cn3cc(C(=O)O)c(=O)c4c(F)cccc43)ccc21	–
142	Cn1cc2cc(Cn3cc(C(=O)O)c(=O)c4c(F)cccc43)ccc2n1	–
617	O=C(O)c1cn(Cc2ccc3[nH]c(=O)[nH]c3c2)c2cccc(F)c2c1=O	–
97	O=C(O)c1cn(Cc2ccc3c(c2)CCC3O)c2cccc(F)c2c1=O (configuration not stated)	–
459	O=C(O)c1cn(Cc2ccc3ncccc3c2)c2cccc(F)c2c1=O	–
69	O=C(O)c1cn(Cc2ccc3ccccc3c2)c2cccc(F)c2c1=O	concentration [2]: 0.676 µM; concentration [3]: 178 nM; concentration [4]: 18 nM; Kp [5]: 0.26; fold change (FC) [6]: 100; Activity [7]: Active
81	O=C1Cc2cc(Cn3cc(C(=O)O)c(=O)c4c(F)cccc43)ccc2N1	–
72	Cn1ncc2cc(Cn3cc(C(=O)O)c(=O)c4c(F)cccc43)ccc21	concentration [2]: 13.2 µM; concentration [3]: 538 nM; concentration [4]: 155 nM; Kp [5]: 0.04
84	O=C(O)c1cn(Cc2ccc3c(c2)OCCO3)c2cccc(F)c2c1=O	concentration [2]: 3.7 µM; concentration [3]: 577 nM; concentration [4]: 119 nM; Kp [5]: 0.15
104	O=C(O)c1cn(Cc2ccc3[nH]ncc3c2)c2cccc(F)c2c1=O	–
> 10000	CN1CCc2cc(Cn3cc(C(=O)O)c(=O)c4c(F)cccc43)ccc21	–

The remaining lines, values behind:

Structure (SMILES)	IP [1] [nM]	other results
O=C(O)c1cn(C/C=C/c2ccccc2F)c2c(F)cccc2c1=O	240	–
Cc1cccc(/C=C/Cn2cc(C(=O)O)c(=O)c3cccc(F)c32)c1	250	–
N#Cc1ccc(/C=C/Cn2cc(C(=O)O)c(=O)c3cccc(F)c32)cc1	1000	–
O=C(O)c1cn(C/C=C/c2ccncc2)c2c(F)cccc2c1=O	610	–
Cc1ccccc1/C=C/Cn1cc(C(=O)O)c(=O)c2cccc(F)c21	> 10000	–
O=C(O)c1cn(CC#Cc2ccccc2)c2c(F)cccc2c1=O	3400	–
COc1cccc(/C=C/Cn2cc(C(=O)O)c(=O)c3cccc(F)c32)c1	1400	–
O=C(O)c1cn(Cc2nc3ccccc3s2)c2cccc(F)c2c1=O	1800	–
O=C(O)c1cn(C/C=C/c2ccccn2)c2c(F)cccc2c1=O	5200	–
COc1ccc(/C=C/Cn2cc(C(=O)O)c(=O)c3cccc(F)c32)cc1	380	–
O=C(O)c1cn(Cc2ccc3ccccc3c2)c2c(F)cccc2c1=O	80	–
O=C(O)c1cn(Cc2ccc3ccccc3c2)c2c(F)ccc(F)c2c1=O	266	–
O=C(O)c1cn(C/C=C/c2ccccc2)c2c(F)cccc2c1=O	270	–
O=C(O)c1cn(C/C=C/c2cccnc2)c2c(F)cccc2c1=O	> 10000	–
O=C(O)c1cn(C/C=C/c2ccc(F)cc2)c2c(F)cccc2c1=O	120	–
O=C(O)c1cn(C/C=C/c2ccc(Cl)cc2)c2c(F)cccc2c1=O	320	–
O=C(O)c1cn(C/C=C/c2cccc(F)c2)c2c(F)cccc2c1=O	370	–
O=C(O)c1cn(Cc2ccc3ccccc3n2)c2cccc(F)c2c1=O	897	–
COc1ccccc1/C=C/Cn1cc(C(=O)O)c(=O)c2cccc(F)c21	> 10000	–
Cc1ccc(/C=C/Cn2cc(C(=O)O)c(=O)c3cccc(F)c32)cc1	910	–
CN(C)c1ccc(/C=C/Cn2cc(C(=O)O)c(=O)c3cccc(F)c32)cc1	860	–

From ChEMBL document CHEMBL1770115, “Fused heterocyclic M1 positive allosteric modulators” (Bioorg Med Chem Lett, 2011)
